Residues, ends and D or L forms follow the SMILES beside them. *: point of attachment. Cbz = O=C(OCc1ccccc1)*
How the values were obtained:
[1] = test system: L444P GC; type: cell-based, human; details: 0.8 μM; 24, 72 and 120 h
Method: The partial restoration of L444P GC proteostasis was further supported by analysis of the distinct glycosylation pattern associated with GC trafficking through the Golgi compartment. Ron et al., Hum Mol Genet. 14: 2387-2398, 2005; Zimmer et al., J Pathol 188: 407-414, 1999. Fibroblasts grown in the presence or absence of celastrol were lysed at the indicated times and the glycosylation of L444P GC was analyzed by Western blot after treatment with endoglycosidase H (endo H) (FIG. 1B). Digestion with PNGase F confirms that the high MW endo H resistant band was glycosylated (FIG. 8). A low molecular weight band corresponding to the endo H-sensitive, partially glycosylated GC that has not left the ER is typically detected after endo H treatment. Ron et al., Hum Mol Genet. […]
Western blot analyses. […] Total cell protein was determined with Micro BCA assay reagent (Pierce, Rockford, Ill.) and each sample was diluted to the same protein concentration. […] The western blot bands of the endoH treated samples were quantified by Java Image processing and analysis software from the NIH (http://rsb.info.nih.gov/ij/).
Western blot. […] Total cell protein was measured using the Micro BCA assay reagent. […]

[2] = test system: spliced Xbp-1 mRNA (IRE1 arm of the UPR); assay: RT-PCR analysis of Xbp-1 splicing in L444P GC fibroblasts; type: cell-based, human; details: single exposure 0.8 μM; 2, 4, 6 and 24 h
Method: IRE1 responds to stress by oligomerization, resulting in trans-autophosphorylation that activates its endonuclease function, precisely splicing the mRNA that encodes the transcription factor XBP1. Ron et al., Nat Rev Mol Cell Biol 8: 519-529, 2007; Schroeder et al., Ann Rev Biochem 74: 739-789, 2005. RT-PCR was performed to detect the spliced mRNA of XBP1.
RT-PCR analysis of Xbp-1 splicing. cDNA was synthesized as in quantitative RT-PCR. Samples were heated for 5 min at 95° C., amplified in 30 cycles of 60 s at 95° C., 30 s at 58° C., and 30 s at 72° C., and 5 min at 72° C. PCR products were subjected to a 2.5% agarose gel. Unspliced Xbp-1 yielded a 289 bp amplicon, and spliced Xbp-1 yielded a 263 bp amplicon. The experiments were performed three times and similar results were obtained.

[3] = target: T1, L444P GC (Homo sapiens, UniProt P04062, L483P); assay: Lysed cell GC activity assay, lysed L444P fibroblasts incubated with compound; type: biochemical; details: 0.01 to 1000 μM
T1 construct: a L444P GC Gaucher fibroblast cell line (GM08760); host or cells: Gaucher patient-derived skin fibroblasts
T1 sequence (P04062 40-536 L483P): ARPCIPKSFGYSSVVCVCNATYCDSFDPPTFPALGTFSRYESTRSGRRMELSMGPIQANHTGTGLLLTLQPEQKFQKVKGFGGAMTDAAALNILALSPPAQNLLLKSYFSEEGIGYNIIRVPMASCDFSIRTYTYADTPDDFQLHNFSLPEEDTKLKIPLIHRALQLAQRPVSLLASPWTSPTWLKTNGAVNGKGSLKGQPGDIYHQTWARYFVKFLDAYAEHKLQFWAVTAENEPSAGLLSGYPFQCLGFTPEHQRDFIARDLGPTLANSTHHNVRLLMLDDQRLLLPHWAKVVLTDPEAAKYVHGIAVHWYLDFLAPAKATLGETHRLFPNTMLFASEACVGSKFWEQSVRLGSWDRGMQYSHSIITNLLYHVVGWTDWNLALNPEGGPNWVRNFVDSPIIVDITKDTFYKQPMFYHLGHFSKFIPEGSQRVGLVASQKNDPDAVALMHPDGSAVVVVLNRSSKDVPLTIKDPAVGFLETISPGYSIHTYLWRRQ

SMILES	endo H-resistant (post-ER) GC glycoform band [1]	spliced Xbp-1 mRNA [2]	GC inhibition in lysed L444P fibroblasts [3]
CC(C)C[C@@H](C=O)NC(=O)[C@H](CC(C)C)NC(=O)[C@H](CC(C)C)NC(=O)OCc1ccccc1 [MG-132] (Cbz-Leu-Leu-Leu-aldehyde)	striking increase	no spliced Xbp-1 could be detected	
COc1ccc([C@@H]2Sc3ccccc3N(CCN(C)C)C(=O)[C@@H]2OC(C)=O)cc1.Cl [diltiazem, Diltiazem hydrochloride]			No significant GC inhibition

Source: patent US20090203605A1, “Methods For Treating A Condition Characterized By Dysfunction In Protein Homeostasis” (THE SCRIPPS RESEARCH INSTITUTE, priority 2008, published 2009)
